Laboratory results from patent publication US20240390295A1, “METHODS FOR TREATING DEPRESSION” (JANSSEN PHARMACEUTICA NV, priority 2020, published 2024).

System: adult patients (aged 18-64 years) with TRD
Test: Clinician-reported adverse events: incidence and recurrence by Week 1/Week 4 frequency, pooled studies 1 and 2 (ESK + OAD)
Format: in vivo, human
Text: Data were pooled from adult patients (aged 18-64 years) with TRD. Patients had recurrent or single-episode (>2 years) MDD (DSM-5), a Clinician-Rated Inventory of Depressive Symptomatology score of >3 and a total Montgomery-Åsberg Depression Rating Scale (MADRS) score of >2. At screening, depressive symptoms had been non-responsive to adequate trials of ≥1 and ≤5 commercially available OAD in the current depressive episode. Non response was further confirmed by a prospective trial of a different OAD lasting ≥4 weeks and during the screening phase.
In brief, study 1 was a double-blind, placebo-controlled relapse prevention trial comparing the efficacy of ESK versus placebo nasal spray, both in conjunction with a Food and Drug Administration (FDA)-approved OAD, in delaying relapse of depressive symptoms in patients with TRD who were either in stable remission or stable response after four months' treatment with ESK in conjunction with a FDA-approved OAD. Study 2 was an open-label, multicenter study that assessed the long-term safety and efficacy of ESK in conjunction with an FDA-approved OAD in patients with TRD.
The analysis was limited to the two doses of ESK (56 mg and 84 mg) approved for use by the FDA for patients with TRD. Patients received ESK (56 or 84 mg) in conjunction with an OAD twice weekly during the induction phase (Weeks 1-4); once weekly during Weeks 5-8 of the optimization phase: either once weekly or every other week during the remainder of the 12-week optimization phase and the maintenance phase (individualized according to the severity of depressive symptoms [MADRS total score≤/>12] and tolerability).
Patients were monitored for >90 minutes after ESK administration at each treatment session, after which time they could leave the clinical site at the clinician's discretion. AEs were monitored and reported, and safety assessments, including clinical laboratory tests and physical examinations, were conducted throughout the study. Clinician-reported AEs were categorized as mild, moderate, or severe based on clinical judgement (Table 1).
This analysis included any treatment sessions in which patients received ESK (either open-label or blinded). The occurrence and severity of AEs were assessed within the following timeframes: Month 1 (Week 1 and Weeks 2-4), Month 2 (Weeks 5-8), Months 3-6 and Months 6-12. Severity of clinician-reported AEs were scored as 0 (no AE), 1 (mild), 2 (moderate), and 3 (severe). To examine AEs in individual patients over time, only patients who received at least one ESK dose in the following period were included in the analyses of each respective period. Thus, patient data were retained in (i) Week 1 if the patient received ≥1 ESK dose in Weeks 2-4, (ii) Weeks 2-4 if the patient received ≥1 ESK dose in Weeks 5-8, (iii) Weeks 5-8 if the patient received ≥1 ESK dose in Months 3-6, and (iv) Months 3-6 if the patient received ≥1 ESK dose in Months 6-12.
The five most commonly reported treatment-emergent events occurring with ESK plus OAD therapy (dissociation, dizziness, nausea, sedation, and vertigo) were evaluated, each of which has an incidence ≥5% and at least a 2-fold greater incidence than with placebo plus an OAD. 14 Increases in BP were also examined.
Week 1 and Week 4 were set a priori as index weeks because they are the beginning and end of the induction period. Frequencies and maximum-reported severities of AEs reported during these index weeks served as stratifying variables by which to examine recurrence and severities of AE recurrences in future timeframes.

[1] = Months 3-6, overall rate for timeframe
[2] = Months 6-12, AE twice in Week 1
[3] = Months 6-12, overall rate for timeframe
[4] = Week 1, overall rate for timeframe

Q: How did the “vomiting during later periods” value (8 participants who had vomiting twice during week 1) turn out when `CN[C@]1(c2ccccc2Cl)CCCCC1=O` [esketamine, (S)-2-(2-chlorophenyl)-2-(methylamino)cyclohexanone] was run?
A: The value was “none experienced vomiting during later periods”.

Q: And the “participants experiencing an AE after any subsequent treatment session” value (AE not reported in week 1)?
A: Its value is less than 10%.

Q: And the Clinician-reported dissociation (Months 3-6, AE once in Week 1)?
A: Its Clinician-reported dissociation is 26.2%.

Q: And the “Clinician-reported increased blood pressure” value (Months 3-6, AE once in Week 1)?
A: Its value is 36.4%.

Q: What about the Clinician-reported sedation (Months 3-6, AE once in Week 1) of the same compound?
A: The Clinician-reported sedation was 0%.

Q: What about the Dizziness (Months 3-6, AE once in Week 1) of the same compound?
A: The Dizziness was 31.2%.

Q: And the Nausea (Months 3-6, AE once in Week 1)?
A: The Nausea was 20.8%.

Q: And the Vertigo (Months 3-6, AE once in Week 1)?
A: Its Vertigo is 28.6%.

Q: And the Clinician-reported dissociation (Months 3-6, AE twice in Week 1)?
A: Its Clinician-reported dissociation is 61.1%.

Q: And the “Clinician-reported increased blood pressure” value (Months 3-6, AE twice in Week 1)?
A: The value was 40.0%.

Q: And the Clinician-reported sedation (Months 3-6, AE twice in Week 1)?
A: Its Clinician-reported sedation is 36.4%.

Q: What about the Dizziness (Months 3-6, AE twice in Week 1) of the same compound?
A: Its Dizziness is 53.0%.

Q: What about the Nausea (Months 3-6, AE twice in Week 1) of the same compound?
A: Its Nausea is 33.3%.

Q: What about the Vertigo (Months 3-6, AE twice in Week 1) of the same compound?
A: The Vertigo was 59.5%.

Q: What about the Clinician-reported dissociation (Months 3-6, No AE in Week 1) of the same compound?
A: Its Clinician-reported dissociation is 7.6%.

Q: And the “Clinician-reported increased blood pressure” value (Months 3-6, No AE in Week 1)?
A: The value was 3.0%.

Q: What about the Clinician-reported sedation (Months 3-6, No AE in Week 1) of the same compound?
A: Its Clinician-reported sedation is 3.0%.

Q: And the Dizziness (Months 3-6, No AE in Week 1)?
A: Its Dizziness is 7.5%.

Q: And the Nausea (Months 3-6, No AE in Week 1)?
A: Its Nausea is 4.5%.

Q: And the Vertigo (Months 3-6, No AE in Week 1)?
A: The Vertigo was 3.4%.

Q: What about the Anxiety (Months 3-6, None in Week 1) of the same compound?
A: Its Anxiety is 1.2%.

Q: And the “Feeling Drunk” value (Months 3-6, None in Week 1)?
A: Its value is 0.2%.

Q: And the Hypoesthesia (Months 3-6, None in Week 1)?
A: Its Hypoesthesia is 2.5%.

Q: What about the Lethargy (Months 3-6, None in Week 1) of the same compound?
A: The Lethargy was 0.2%.

Q: And the Vomiting (Months 3-6, None in Week 1)?
A: The Vomiting was 1.9%.

Q: And the Anxiety (Months 3-6, Once in Week 1)?
A: Its Anxiety is 10.0%.

Q: What about the “Feeling Drunk” value (Months 3-6, Once in Week 1) of the same compound?
A: The value was 16.7%.

Q: And the Hypoesthesia (Months 3-6, Once in Week 1)?
A: The Hypoesthesia was 20.7%.

Q: And the Lethargy (Months 3-6, Once in Week 1)?
A: Its Lethargy is 40.0%.

Q: What about the Vomiting (Months 3-6, Once in Week 1) of the same compound?
A: Its Vomiting is 21.1%.

Q: What about the Anxiety (Months 3-6, Overall) of the same compound?
A: The Anxiety was 1.5%.

Q: What about the “Feeling Drunk” value (Months 3-6, Overall) of the same compound?
A: The value was 1.5%.

Q: And the Hypoesthesia (Months 3-6, Overall)?
A: Its Hypoesthesia is 5.2%.

Q: And the Lethargy (Months 3-6, Overall)?
A: Its Lethargy is 0.5%.

Q: What about the Vomiting (Months 3-6, Overall) of the same compound?
A: Its Vomiting is 2.5%.

Q: What about the Anxiety (Months 3-6, Twice in Week 1) of the same compound?
A: Its Anxiety is 50.0%.

Q: What about the “Feeling Drunk” value (Months 3-6, Twice in Week 1) of the same compound?
A: Its value is 100.0%.

Q: What about the Hypoesthesia (Months 3-6, Twice in Week 1) of the same compound?
A: Its Hypoesthesia is 73.3%.

Q: And the Lethargy (Months 3-6, Twice in Week 1)?
A: The Lethargy was 0%.

Q: What about the Vomiting (Months 3-6, Twice in Week 1) of the same compound?
A: Its Vomiting is 0%.

Q: And the Clinician-reported dissociation [1]?
A: Its Clinician-reported dissociation is 14.4%.

Q: And the “Clinician-reported increased blood pressure” value [1]?
A: The value was 4.2%.

Q: And the Clinician-reported sedation [1]?
A: The Clinician-reported sedation was 3.5%.

Q: What about the Dizziness [1] of the same compound?
A: The Dizziness was 15.6%.

Q: And the Nausea [1]?
A: The Nausea was 7.2%.

Q: And the Vertigo [1]?
A: The Vertigo was 8.2%.

Q: And the Clinician-reported dissociation (Months 6-12, AE once in Week 1)?
A: Its Clinician-reported dissociation is 18.5%.

Q: And the “Clinician-reported increased blood pressure” value (Months 6-12, AE once in Week 1)?
A: Its value is 9.1%.

Q: What about the Clinician-reported sedation (Months 6-12, AE once in Week 1) of the same compound?
A: Its Clinician-reported sedation is 0%.

Q: What about the Dizziness (Months 6-12, AE once in Week 1) of the same compound?
A: Its Dizziness is 20.8%.

Q: What about the Nausea (Months 6-12, AE once in Week 1) of the same compound?
A: The Nausea was 18.2%.

Q: And the Vertigo (Months 6-12, AE once in Week 1)?
A: Its Vertigo is 23.8%.

Q: What about the Clinician-reported dissociation [2] of the same compound?
A: The Clinician-reported dissociation was 33.3%.

Q: What about the “Clinician-reported increased blood pressure” value [2] of the same compound?
A: The value was 20.0%.

Q: And the Clinician-reported sedation [2]?
A: The Clinician-reported sedation was 45.5%.

Q: And the Dizziness [2]?
A: Its Dizziness is 21.2%.

Q: And the Nausea [2]?
A: Its Nausea is 8.3%.

Q: What about the Vertigo [2] of the same compound?
A: The Vertigo was 38.1%.

Q: What about the Clinician-reported dissociation (Months 6-12, No AE in Week 1) of the same compound?
A: The Clinician-reported dissociation was 4.6%.

Q: What about the “Clinician-reported increased blood pressure” value (Months 6-12, No AE in Week 1) of the same compound?
A: Its value is 1.7%.

Q: And the Clinician-reported sedation (Months 6-12, No AE in Week 1)?
A: Its Clinician-reported sedation is 1.7%.

Q: What about the Dizziness (Months 6-12, No AE in Week 1) of the same compound?
A: Its Dizziness is 4.0%.

Q: What about the Nausea (Months 6-12, No AE in Week 1) of the same compound?
A: Its Nausea is 4.9%.

Q: What about the Vertigo (Months 6-12, No AE in Week 1) of the same compound?
A: Its Vertigo is 1.7%.

Q: What about the Anxiety (Months 6-12, None in Week 1) of the same compound?
A: The Anxiety was 2.1%.

Q: What about the “Feeling Drunk” value (Months 6-12, None in Week 1) of the same compound?
A: The value was 0.2%.

Q: What about the Hypoesthesia (Months 6-12, None in Week 1) of the same compound?
A: Its Hypoesthesia is 1.6%.

Q: And the Lethargy (Months 6-12, None in Week 1)?
A: Its Lethargy is 1.6%.

Q: And the Vomiting (Months 6-12, None in Week 1)?
A: The Vomiting was 1.9%.

Q: What about the Anxiety (Months 6-12, Once in Week 1) of the same compound?
A: Its Anxiety is 0%.

Q: What about the “Feeling Drunk” value (Months 6-12, Once in Week 1) of the same compound?
A: The value was 33.3%.

Q: And the Hypoesthesia (Months 6-12, Once in Week 1)?
A: The Hypoesthesia was 13.8%.

Q: What about the Lethargy (Months 6-12, Once in Week 1) of the same compound?
A: The Lethargy was 0%.

Q: And the Vomiting (Months 6-12, Once in Week 1)?
A: Its Vomiting is 10.5%.

Q: And the Anxiety (Months 6-12, Overall)?
A: Its Anxiety is 2.2%.

Q: What about the “Feeling Drunk” value (Months 6-12, Overall) of the same compound?
A: Its value is 1.5%.

Q: And the Hypoesthesia (Months 6-12, Overall)?
A: The Hypoesthesia was 3.2%.

Q: What about the Lethargy (Months 6-12, Overall) of the same compound?
A: The Lethargy was 0.2%.

Q: And the Vomiting (Months 6-12, Overall)?
A: The Vomiting was 2.2%.

Q: And the Anxiety (Months 6-12, Twice in Week 1)?
A: Its Anxiety is 50.0%.

Q: And the “Feeling Drunk” value (Months 6-12, Twice in Week 1)?
A: The value was 85.7%.

Q: What about the Hypoesthesia (Months 6-12, Twice in Week 1) of the same compound?
A: Its Hypoesthesia is 40.0%.

Q: What about the Lethargy (Months 6-12, Twice in Week 1) of the same compound?
A: The Lethargy was 0%.

Q: And the Vomiting (Months 6-12, Twice in Week 1)?
A: Its Vomiting is 0%.

Q: What about the Clinician-reported dissociation [3] of the same compound?
A: The Clinician-reported dissociation was 8.8%.

Q: And the “Clinician-reported increased blood pressure” value [3]?
A: The value was 2.2%.

Q: What about the Clinician-reported sedation [3] of the same compound?
A: The Clinician-reported sedation was 2.5%.

Q: What about the Dizziness [3] of the same compound?
A: Its Dizziness is 8.1%.

Q: And the Nausea [3]?
A: The Nausea was 6.7%.

Q: What about the Vertigo [3] of the same compound?
A: The Vertigo was 5.0%.

Q: What about the Clinician-reported dissociation [4] of the same compound?
A: Its Clinician-reported dissociation is 17.1%.

Q: What about the “Clinician-reported increased blood pressure” value [4] of the same compound?
A: Its value is 4.4%.

Q: And the Clinician-reported sedation [4]?
A: The Clinician-reported sedation was 3.9%.

Q: And the Dizziness [4]?
A: The Dizziness was 21.1%.

Q: And the Nausea [4]?
A: The Nausea was 14.3%.

Q: What about the Vertigo [4] of the same compound?
A: Its Vertigo is 12.4%.
